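1) Cells in 96-well plates. 2) Compound, 48 h, 5 concentrations. 3) Linear interpolation between surrounding doses. 4) Unreached endpoint = highest concentration. GI50 marks 50% less growth.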 Activity calls are given as the source filed them. Cut-off read from the data, not from the text of the source: active = GI50 up to about 1.1 µM and inactive = higher.
Columns and labels:
Assay in all cases: inhibition of tumour cell growth, NCI panel, 48 h
ACHN = system: ACHN
COLO 205 = system: COLO 205
TK-10 = system: TK-10
RPMI-8226 = system: RPMI-8226
SNB-19 = system: SNB-19
NCI-H226 = system: NCI-H226
SK-MEL-28 = system: SK-MEL-28
SN12C = system: SN12C
UO-31 = system: UO-31
SW-620 = system: SW-620
A549 = system: A549
SK-MEL-2 = system: SK-MEL-2
CAKI-1 = system: CAKI-1
Malme-3M = system: Malme-3M
786-0 = system: 786-0
LOX IMVI = system: LOX IMVI
A498 = system: A498
MDA-MB-435 = system: MDA-MB-435
Hs-578T = system: Hs-578T

Measured: GI50

COc1ccc2c(c1)OCCCN(C)OC2c1ccccc1 (stereo not given)
inactive: ACHN > 100 µM | COLO 205 > 100 µM | TK-10 > 100 µM | RPMI-8226 > 100 µM | SNB-19 > 100 µM | NCI-H226 > 100 µM | SK-MEL-28 89.3 µM | SN12C > 100 µM | UO-31 > 100 µM | SW-620 > 100 µM | A549 > 100 µM | SK-MEL-2 > 100 µM | CAKI-1 > 100 µM | Malme-3M > 100 µM | 786-0 > 100 µM

CCOC(=O)/C(=C\NC(N)=S)C(=O)c1ccccc1
inactive: ACHN > 100 µM | COLO 205 > 100 µM | TK-10 > 100 µM | LOX IMVI > 100 µM | SNB-19 > 100 µM | NCI-H226 > 100 µM | SK-MEL-28 > 100 µM | SN12C > 100 µM | UO-31 > 100 µM | SW-620 > 100 µM | A498 > 100 µM | A549 > 100 µM | SK-MEL-2 > 100 µM | CAKI-1 > 100 µM | MDA-MB-435 > 100 µM | 786-0 > 100 µM

C[n+]1c2ccccc2c(/C=N\NS(=O)(=O)c2ccc(O)c(C(=O)O)c2)c2ccccc21
inactive: ACHN 80.2 µM | TK-10 > 100 µM | LOX IMVI 12.9 µM | RPMI-8226 40.6 µM | SNB-19 67.9 µM | NCI-H226 26.1 µM | SK-MEL-28 61.7 µM | SN12C 67.8 µM | UO-31 29.2 µM | SW-620 41.1 µM | A498 37.6 µM | A549 23.4 µM | SK-MEL-2 63.5 µM | CAKI-1 28.2 µM | Malme-3M > 100 µM | 786-0 34.4 µM

C=C(C(=O)OC)[C@H]1CC/C(C)=C/CC/C(C)=C/CC[C@@]2(C)O[C@@H]2C1
inactive: ACHN 19.8 µM | COLO 205 15 µM | TK-10 21.5 µM | LOX IMVI 15.5 µM | RPMI-8226 14.4 µM | SNB-19 > 100 µM | NCI-H226 19.9 µM | SK-MEL-28 34.6 µM | SN12C 16.9 µM | UO-31 19 µM | SW-620 18.5 µM | A498 22.1 µM | A549 14.9 µM | SK-MEL-2 15.3 µM | CAKI-1 13.2 µM | MDA-MB-435 22.9 µM | Malme-3M 25.1 µM | 786-0 15.5 µM

CCCN1C(=O)C/C(=C\C(C)=O)Nc2ccccc21
inactive: ACHN > 100 µM | COLO 205 86.3 µM | TK-10 > 100 µM | LOX IMVI > 100 µM | SNB-19 > 100 µM | NCI-H226 37.2 µM | SK-MEL-28 > 100 µM | SN12C > 100 µM | UO-31 > 100 µM | SW-620 > 100 µM | A549 > 100 µM | SK-MEL-2 > 100 µM | CAKI-1 > 100 µM | Malme-3M > 100 µM | 786-0 > 100 µM

O=C1C2Cc3ccccc3CN2C(=O)N1CCN1CCOCC1 (stereo not given)
inactive: ACHN > 100 µM | COLO 205 > 100 µM | TK-10 > 100 µM | LOX IMVI > 100 µM | RPMI-8226 > 100 µM | SNB-19 > 100 µM | NCI-H226 > 100 µM | SK-MEL-28 > 100 µM | SN12C > 100 µM | UO-31 > 100 µM | SW-620 > 100 µM | A498 > 100 µM | A549 > 100 µM | SK-MEL-2 > 100 µM | CAKI-1 > 100 µM | Malme-3M > 100 µM | 786-0 > 100 µM

C=C(C)[C@@H]1CC[C@]2(CO)CC[C@]3(C)[C@H](CC[C@@H]4[C@@]5(C)CC[C@H](O)C(C)(C)[C@@H]5CC[C@]43C)[C@@H]12 [BETULIN]
inactive: ACHN 11.1 µM | TK-10 17.1 µM | LOX IMVI 14.6 µM | SNB-19 > 10 µM | NCI-H226 39 µM | SK-MEL-28 33.1 µM | SN12C 24.8 µM | UO-31 11.1 µM | SW-620 20.1 µM | A498 21.5 µM | A549 9.35 µM | CAKI-1 15.3 µM | MDA-MB-435 19.5 µM | Malme-3M 52.5 µM | 786-0 13.6 µM

O=C(c1ccccc1)c1c(-c2ccccc2)sc2nc3ccccc3nc12
inactive: ACHN > 100 µM | COLO 205 > 100 µM | TK-10 > 100 µM | RPMI-8226 > 100 µM | SNB-19 55 µM | NCI-H226 20.3 µM | SK-MEL-28 > 100 µM | SN12C > 100 µM | SW-620 > 100 µM | A498 > 100 µM | A549 > 100 µM | SK-MEL-2 > 100 µM | CAKI-1 > 100 µM | Malme-3M 92.3 µM | 786-0 38.1 µM

O=C1c2ccccc2-c2cccc3ccc(Cc4ccccc4)c1c23
inactive: ACHN > 100 µM | COLO 205 > 100 µM | TK-10 > 100 µM | RPMI-8226 > 100 µM | SNB-19 > 100 µM | SK-MEL-28 > 100 µM | SN12C > 100 µM | UO-31 > 100 µM | SW-620 > 100 µM | A549 > 100 µM | SK-MEL-2 > 100 µM | Malme-3M > 100 µM | 786-0 > 100 µM

COc1c(C)c(C/C=C(\C)CC/C=C(\C)CCC=C(C)C)c(OC)c(OC)c1OC
inactive: ACHN > 100 µM | COLO 205 > 100 µM | TK-10 > 100 µM | LOX IMVI 76.6 µM | Hs-578T > 100 µM | SNB-19 > 100 µM | SN12C > 100 µM | UO-31 > 100 µM | SW-620 > 100 µM | A549 49.3 µM | SK-MEL-2 > 100 µM | CAKI-1 > 100 µM | MDA-MB-435 21.5 µM | 786-0 > 100 µM

C=CCOC(=O)Cn1ccc(=O)[nH]c1=O
inactive: ACHN > 100 µM | COLO 205 > 100 µM | TK-10 > 100 µM | LOX IMVI > 100 µM | Hs-578T > 100 µM | RPMI-8226 > 100 µM | SNB-19 > 100 µM | NCI-H226 > 100 µM | SK-MEL-28 > 100 µM | SN12C > 100 µM | UO-31 > 100 µM | SW-620 > 100 µM | A498 > 100 µM | A549 > 100 µM | SK-MEL-2 > 100 µM | CAKI-1 > 100 µM | Malme-3M > 100 µM | 786-0 > 100 µM

C[C@@H](CO)C1=CC(C#C[Si](C)(C)C)N(C(=O)Oc2ccccc2)c2ccccc21 (stereo not given in full)
inactive: ACHN 18.6 µM | COLO 205 23.8 µM | TK-10 31.1 µM | LOX IMVI 17.6 µM | Hs-578T 25.1 µM | RPMI-8226 24.9 µM | SNB-19 27.2 µM | NCI-H226 20 µM | SK-MEL-28 18.2 µM | SN12C 16.8 µM | UO-31 14.7 µM | SW-620 24 µM | A549 20.9 µM | SK-MEL-2 16.9 µM | CAKI-1 24 µM | MDA-MB-435 3.45 µM | 786-0 17.2 µM

COC(=O)C(=O)C(C#N)c1c(Cl)cccc1Cl (stereo not given)
inactive: ACHN > 100 µM | COLO 205 > 100 µM | TK-10 > 100 µM | LOX IMVI > 100 µM | RPMI-8226 > 100 µM | SNB-19 > 100 µM | NCI-H226 > 100 µM | SK-MEL-28 > 100 µM | SN12C > 100 µM | UO-31 > 100 µM | SW-620 > 100 µM | A498 > 100 µM | A549 > 100 µM | SK-MEL-2 > 100 µM | CAKI-1 > 100 µM | Malme-3M > 100 µM | 786-0 > 100 µM

CCOc1cc2c(cc1O)/C(=N/NS(=O)(=O)c1ccc(C)cc1)C[C@@H]1[C@@H]2CC[C@]2(C)[C@@H](O)CC[C@@H]12
inactive: ACHN 10.5 µM | COLO 205 3.36 µM | TK-10 51.1 µM | LOX IMVI 8.43 µM | Hs-578T 7.57 µM | RPMI-8226 2.92 µM | SNB-19 8.79 µM | NCI-H226 6.01 µM | SK-MEL-28 > 100 µM | UO-31 4.2 µM | SW-620 3.52 µM | A498 9.31 µM | A549 6.46 µM | SK-MEL-2 3.94 µM | CAKI-1 12.6 µM | Malme-3M 7.43 µM | 786-0 9.73 µM

CN(C)CCCNc1ccnc2c([N+](=O)[O-])cccc12
inactive: ACHN 31.1 µM | COLO 205 2.37 µM | TK-10 > 100 µM | LOX IMVI 19.5 µM | RPMI-8226 21.6 µM | SNB-19 23.4 µM | NCI-H226 > 100 µM | SK-MEL-28 95.7 µM | SN12C 14.6 µM | UO-31 38.7 µM | SW-620 15.2 µM | A549 28.2 µM | SK-MEL-2 > 10 µM | CAKI-1 35.3 µM | Malme-3M 2.52 µM | 786-0 22.2 µM

CC(C(=O)NCNC(=O)c1ccccc1)C(=O)Nc1ccccc1 (stereo not given)
inactive: ACHN > 100 µM | COLO 205 > 100 µM | TK-10 > 100 µM | Hs-578T > 100 µM | RPMI-8226 > 100 µM | SNB-19 > 100 µM | NCI-H226 > 100 µM | SN12C > 100 µM | UO-31 > 100 µM | SW-620 > 100 µM | A549 > 100 µM | SK-MEL-2 > 100 µM | CAKI-1 > 100 µM | MDA-MB-435 > 100 µM | Malme-3M > 100 µM | 786-0 > 100 µM

O=C(c1ccccc1)c1oc2ccc(Br)cc2c1-c1cnn(-c2ccccc2)c1
inactive: ACHN > 100 µM | COLO 205 > 100 µM | TK-10 > 10 µM | LOX IMVI > 100 µM | RPMI-8226 54.7 µM | SNB-19 > 100 µM | SK-MEL-28 > 100 µM | SN12C > 100 µM | UO-31 > 100 µM | SW-620 > 10 µM | A549 > 10 µM | SK-MEL-2 > 100 µM | CAKI-1 > 100 µM | Malme-3M > 100 µM | 786-0 > 100 µM
